Source: patent US7485651B2, “Compounds with activity on muscarinic receptors” (Acadia Pharmaceuticals, Inc., priority 1998, dated 2009)

Molecular target: T1, m4 receptor (Homo sapiens, UniProt P08173)
T1 construct: expressed in transfected cells; host or cells: NIH 3T3 (ATCC CRL 1658)
T1 sequence (P08173 1-479): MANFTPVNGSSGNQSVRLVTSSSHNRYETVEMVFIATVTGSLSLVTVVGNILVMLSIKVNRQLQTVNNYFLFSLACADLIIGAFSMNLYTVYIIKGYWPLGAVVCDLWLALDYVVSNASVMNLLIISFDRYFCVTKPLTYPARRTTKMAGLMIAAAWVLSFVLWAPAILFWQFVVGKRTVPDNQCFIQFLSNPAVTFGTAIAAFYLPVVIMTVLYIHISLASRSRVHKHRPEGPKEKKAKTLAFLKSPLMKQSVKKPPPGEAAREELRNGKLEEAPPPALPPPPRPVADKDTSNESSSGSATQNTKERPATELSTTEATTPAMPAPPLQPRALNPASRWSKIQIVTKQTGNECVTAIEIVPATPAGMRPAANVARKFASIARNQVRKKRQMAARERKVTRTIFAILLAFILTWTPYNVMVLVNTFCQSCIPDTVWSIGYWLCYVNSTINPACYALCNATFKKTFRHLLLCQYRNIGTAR
Test: NIH 3T3 cells transfected with m4 muscarinic receptor and Gq-i5
Assay type: cell-based
Protocol: Transfection of cells with muscarinic receptor DNAs (general procedure) NIH 3T3 cells (available from the American Type Culture Collection as ATCC CRL 1658) were grown at 37° C. in a humidified atmosphere (5% CO2) incubator in Dulbecco's modified Eagle's medium (DMEM) supplemented with 4.5 g/l glucose, 4 mM glutamine, 50 units/m1 penicillin, 50 units/m1 streptomycin (available from Advanced Biotechnologies, Inc., Gaithersburg, Md.) and 10% calf serum (available from Sigma, St. Louis, […].). The cells were treated with trypsin-EDTA, spun down and plated at 2×10^6 per 15 cm dish in 20 m1 of DMEM containing 10% calf serum.
The m1-m5 muscarinic receptor subtypes were cloned substantially as described by Bonner et al., Science 237, 1987, p. 527, and Bonner et al., Neuron 1, 1988, p. 403. For the m2 and m4 receptors, the cells were co-transfected with DNA encoding a chimera between the Gq protein and the five carboxy-terminal amino acids of the Gi protein (the Gq-i5 construct is described by Conklin et al., Nature 363, 1993, p.274).
On day one, the cells were transfected using the Superfect transfection reagent (available from Qiagen, Valencia, Calif.) in accordance with the manufacturer's instructions. […]

CCCCC1CCN(CCCC(=O)c2ccccc2C)CC1 [Compound A, 4-n-Butyl-1-[4-(2-methylphenyl)-4-oxo-1-butyl]piperidine]
antagonism of carbachol-induced responses: not an antagonist
